In ChEMBL document CHEMBL1126055, “A nonpromoting phorbol from the samoan medicinal plant Homalanthus nutans inhibits cell killing by HIV-1” (J Med Chem, 1992):

Columns and labels:
[1] = Displacement of [3H]PDBu from Protein kinase C in vitro; set-up: species or system Mus musculus
[2] = test system: C3H 10T1/2; assay: Inhibition of arachidonic acid metabolite release in C3H10T1/2 cells; type: functional, Mus musculus
[3] = molecular target: Epidermal growth factor receptor (Mus musculus) (UniProt Q01279); assay: Inhibition of epidermal growth factor binding in C3H10T1/2 cells; type: functional, cell-based; details: C3H 10T1/2
Chain of Epidermal growth factor receptor (Mus musculus) (Q01279 whole entry): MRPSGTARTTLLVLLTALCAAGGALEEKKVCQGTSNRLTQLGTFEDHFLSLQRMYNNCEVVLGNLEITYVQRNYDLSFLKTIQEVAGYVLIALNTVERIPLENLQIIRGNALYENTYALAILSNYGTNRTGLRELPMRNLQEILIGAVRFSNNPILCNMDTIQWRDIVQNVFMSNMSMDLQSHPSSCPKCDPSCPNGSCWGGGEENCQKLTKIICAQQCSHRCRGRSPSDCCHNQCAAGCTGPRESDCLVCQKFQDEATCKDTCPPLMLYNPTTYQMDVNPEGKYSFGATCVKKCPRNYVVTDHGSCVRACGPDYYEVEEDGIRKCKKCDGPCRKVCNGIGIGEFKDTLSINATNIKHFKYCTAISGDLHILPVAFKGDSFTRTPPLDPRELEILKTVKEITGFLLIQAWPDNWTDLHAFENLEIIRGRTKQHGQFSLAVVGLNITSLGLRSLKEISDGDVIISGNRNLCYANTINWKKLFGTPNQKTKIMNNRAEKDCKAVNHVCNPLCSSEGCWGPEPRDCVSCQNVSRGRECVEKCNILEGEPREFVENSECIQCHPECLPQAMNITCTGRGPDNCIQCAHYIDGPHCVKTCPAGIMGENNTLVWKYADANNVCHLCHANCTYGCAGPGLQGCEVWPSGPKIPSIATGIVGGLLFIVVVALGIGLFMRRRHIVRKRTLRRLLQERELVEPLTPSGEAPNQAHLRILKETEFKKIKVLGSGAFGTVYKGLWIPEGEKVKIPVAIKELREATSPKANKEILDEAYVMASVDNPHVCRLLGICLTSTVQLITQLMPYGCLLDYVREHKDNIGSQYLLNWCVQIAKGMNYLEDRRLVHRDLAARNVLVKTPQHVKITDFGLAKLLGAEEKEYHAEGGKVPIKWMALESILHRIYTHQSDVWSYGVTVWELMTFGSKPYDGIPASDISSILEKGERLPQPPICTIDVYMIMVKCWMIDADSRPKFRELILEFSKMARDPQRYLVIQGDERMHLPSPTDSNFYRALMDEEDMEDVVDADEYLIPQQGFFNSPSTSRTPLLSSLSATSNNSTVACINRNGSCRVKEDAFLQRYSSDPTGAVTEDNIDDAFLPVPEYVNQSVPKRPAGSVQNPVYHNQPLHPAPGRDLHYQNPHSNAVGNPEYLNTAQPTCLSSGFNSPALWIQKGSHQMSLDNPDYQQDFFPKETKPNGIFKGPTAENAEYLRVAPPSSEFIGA

CC(=O)O[C@@]12C[C@@H](C)[C@@]3(O)[C@@H](C=C(CO)C[C@]4(O)C(=O)C(C)=C[C@@H]34)[C@@H]1C2(C)C [PROSTRATIN]
Ki [1]: 0.0125 µM | Effective concentration [2]: 1100 nM | Effective concentration [3]: 220 nM
